Measured values as given in patent publication US20240215910A1, “A METHOD FOR […] PRO-OR ANTI […] TEST COMPOUNDS” (GW Research Limited, priority 2020, published 2024).

Assays:
[1] = test system: tonic hind limb extensor convulsion from a single electroshock; experiment: mini-MEST: maximal electroshock seizure threshold test using minimal sample sizes (n=6/group, log-scale current steps); conditions: for % change from vehicle / CC50 ± SEM: N=6
Text: (§1) All animals were weighed at the beginning of the study and assigned to treatment groups (n=6/group) based on a mean distribution of body weight across groups.
(§2) The first animal within a treatment group was given a shock at the expected or estimated CC50 current. For subsequent animals, the current was lowered or raised depending on the convulsion outcome from the preceding animal in log scale intervals. Data generated from each treatment group were used to calculate the CC50±SEM values for the treatment group (see Table 5 for details).
as §1
as §2, with “Table 10” for “Table 5”
as §1
as §2, with “Table 15” for “Table 5”

[2] = test system: tonic hind limb extensor convulsion from a single electroshock; mouse model of generalised seizure; experiment: standard maximal electroshock seizure threshold (MEST) test (n=12/group, 5 mA intervals); conditions: Example 4, 30 min post dose; for CC50 +/− SEM: vehicle CC50 24.3
Description: The efficacy of Compound 3 was tested in a mouse model of generalised seizure, the maximal electroshock seizure threshold (MEST) test.
All animals were weighed at the beginning of the study and randomly assigned to treatment groups (n=12/group) based on a mean distribution of body weight across groups.
The first animal within a treatment group was given a shock at the expected or
estimated CC50 current. For subsequent animals, the current was lowered or raised depending on the convulsions outcome from the preceding animal in 5 mA intervals.
Data generated from each treatment group were used to calculate the CC50±SEM values for the treatment group.
Test compound effects were also calculated as percentage change in CC50 from the vehicle control group.
Significant difference between drug-treated animals and controls were assessed according to Litchfield and Wilcoxon (1949).

C=C(C)[C@@H]1CCC(C)=C[C@H]1c1c(O)cc(-c2cnn(CC(C)(C)C)c2)cc1O [Compound 1] was tested, and the “% change from vehicle” value ([1]; Example 1, 50 mg/kg i.p., 30 min post dose) was 388% and the “CC50 ± SEM” value ([1]; Example 1, 50 mg/kg i.p., 30 min post dose, vehicle CC50 24.5) was 119.5 mA.
With C=C(C)[C@@H]1CCC(C)=C[C@H]1c1c(O)cc(-c2cn(C)nn2)cc1O [Compound 2] the “% change from vehicle” value ([1]; Example 2, 5 mg/kg i.p., 15 min post dose) was 26%, the “CC50 ± SEM” value ([1]; Example 2, 5 mg/kg i.p., 15 min post dose, vehicle CC50 22.5) was 28.3 +/− 1.1 mA and the “% change from vehicle” value ([1]; Example 2, 50 mg/kg i.p., 30 min post dose) was 213%. For the same molecule, the “CC50 ± SEM” value ([1]; Example 2, 50 mg/kg i.p., 30 min post dose, vehicle CC50 22.5) was 70.5 +/− 5.8 mA.
In the case of C=C(C)[C@@H]1CCC(C)=C[C@H]1c1c(O)cc(-c2cnn(C)c2)cc1O [Compound 3], the “% change from vehicle” value ([1]; Example 3, 200 mg/kg i.p., 120 min post dose) is reported as greater than 636%, the “CC50 ± SEM” value ([1]; Example 3, 200 mg/kg i.p., 120 min post dose, no "+" seen, vehicle CC50 23.5) is reported as greater than 173 mA and the “seizure threshold as compared to vehicle (in words)” value ([1]; Example 3, 200 mg/kg i.p., 120 mins before testing) is reported as “clear increase in seizure threshold”. For the same molecule, the “% change from vehicle” value ([2]; 2 mg/kg i.p., N=12) was 27%, the “CC50 +/− SEM” value ([2]; 2 mg/kg i.p., N=12) was 30.8 ± 1.0 mA and the “% change from vehicle” value ([2]; 20 mg/kg i.p., N=12) was 116%. The “CC50 +/− SEM” value ([2]; 20 mg/kg i.p., N=12) was 52.5 ± 1.3 mA, the “% change from vehicle” value ([2]; 200 mg/kg i.p., N=12) was 712% and the “CC50 +/− SEM” value ([2]; 200 mg/kg i.p., N=12) was 197.5 ± 20.4 mA. For the same molecule, the “effect on MEST across doses (in words)” value ([2]; 2, 20 and 200 mg/kg i.p.) was “dose-related increase in MEST”.
CN1C(=O)CN=C(c2ccccc2)c2cc(Cl)ccc21 [Diazepam, diazepam, reference compound] was tested, and the “% change from vehicle” value ([1]; Example 1, 2.5 mg/kg i.p., 30 min post dose) was 206%, the “% change from vehicle” value ([1]; Example 2, 2.5 mg/kg i.p., 30 min post dose) was 296% and the “% change from vehicle” value ([1]; Example 3, 2.5 mg/kg i.p., 30 min post dose) was 98%. For the same molecule, the “% change from vehicle” value ([2]; 2.5 mg/kg i.p., N=11) was 223%.
